Key:
Experiment in all cases: Test D controlled growth environment herbicide test, pre- and postemergence
Assay type in all cases: in vivo
[1] = test system: lambsquarters (Chenopodium album)
Excerpt: (§1) Seeds of plant species selected from bluegrass (annual bluegrass, Poa annua), blackgrass (Alopecurus myosuroides), Canada thistle (Cirsium arvense), canarygrass (Phalaris minor), chickweed (common chickweed, Stellaria media), geranium, cutleaf (cutleaf geranium, Geranium dissectum), galium (catchweed bedstraw, Galium aparine), bromegrass, downy (downy bromegrass, Bromus tectorum), field poppy (Papaver rhoeas), field violet (Viola arvensis), foxtail, green (green foxtail, Setaria viridis), deadnettle (henbit deadnettle, Lamium amplexicaule), ryegrass, Italian (Italian ryegrass, Lolium multiflorum), kochia (Kochia scoparia), lambsquarters (Chenopodium album), oilseed rape (Brassica napus), pigweed (Amaranthus retroflexus), chamomile (scentless chamomile, Matricaria inodora), Russian thistle (Salsola kali), speedwell (bird's-eye speedwell, Veronica persica), barley, spring (spring barley, Hordeum vulgare), wheat, spring (spring wheat, Triticum aestivum), buckwheat, wild (wild buckwheat, Polygonum convolvulus), mustard, wild (wild mustard, Sinapis arvensis), oat, wild (wild oat, Avena fatua), radish, wild (wild radish, Raphanus raphanistrum), windgrass (Apera spica-venti), barley, winter (winter barley, Hordeum vulgare), and wheat, winter (winter wheat, Triticum aestivum) were planted into a silt loam soil and treated preemergence with test chemicals formulated in a non-phytotoxic solvent mixture which included a surfactant.
(§2) At the same time, these species were planted in pots containing Redi-Earth® planting medium (Scotts Company, 14111 Scottslawn Road, Marysville, Ohio 43041) comprising spaghnum peat moss, vermiculite, wetting agent and starter nutrients and treated with postemergence applications of the test chemicals formulated in the same manner. Plants ranged in height from 2 to 18 cm (1- to 4-leaf stage). Treated plants and controls were maintained in a controlled growth environment for 14 to 21 d after which time all species were compared to controls and visually evaluated. Plant response ratings, summarized in Table D, are based on a scale of 0 to 100 where 0 is no effect and 100 is complete control. A dash (-) response means no test result.

[2] = test system: barley, spring (spring barley, Hordeum vulgare)
Excerpt: as §1, §2

[3] = test system: windgrass (Apera spica-venti)
Excerpt: as §1, §2

[4] = test system: wheat, spring (spring wheat, Triticum aestivum)
Excerpt: as §1, §2

[5] = test system: mustard, wild (wild mustard, Sinapis arvensis)
Excerpt: as §1, §2

[6] = test system: chamomile (scentless chamomile, Matricaria inodora)
Excerpt: as §1, §2

[7] = test system: bromegrass, downy (downy bromegrass, Bromus tectorum)
Excerpt: as §1, §2

[8] = test system: oat, wild (wild oat, Avena fatua)
Excerpt: as §1, §2

[9] = test system: field violet (Viola arvensis)
Excerpt: as §1, §2

[10] = test system: speedwell (bird's-eye speedwell, Veronica persica)
Excerpt: as §1, §2

[11] = test system: deadnettle (henbit deadnettle, Lamium amplexicaule)
Excerpt: as §1, §2

[12] = test system: radish, wild (wild radish, Raphanus raphanistrum)
Excerpt: as §1, §2

[13] = test system: oilseed rape (Brassica napus)
Excerpt: as §1, §2

[14] = Postemergence, 31 g ai/ha, scale 0 to 100 (0 no effect, 100 complete control)
[15] = Postemergence, 125 g ai/ha, visual rating on scale 0 (no effect) to 100 (complete control), 14 to 21 d
[16] = Postemergence, 250 g ai/ha, scale 0 to 100 (0 no effect, 100 complete control)
[17] = Preemergence, 62 g ai/ha, scale 0 to 100 (0 no effect, 100 complete control)
[18] = Preemergence, 125 g ai/ha, scale 0 to 100 (0 no effect, 100 complete control)
[19] = Preemergence, 250 g ai/ha, scale 0 to 100 (0 no effect, 100 complete control)
[20] = postemergence, 62 g ai/ha, scale 0 to 100, 0 no effect, 100 complete control

For `CCC(=O)Oc1c(C)nn(C)c(=O)c1-c1c(C)sc2ccc(C)cc12` [Compound 42], the “Lambsquarters plant response rating” value [1, 14] was 80, the “Plant response rating, Lambsquarters” value [1, 15] was 85 and the “Plant response rating, Lambsquarters” value [1, 16] was 90. For the same compound, the “Plant response rating (scale of 0 to 100), Lambsquarters” value ([1]; Preemergence, 31 g ai/ha) was 98, the “Plant response rating, Lambsquarters” value [1, 17] was 100 and the “Plant response rating, Lambsquarters” value [1, 18] was 100. For the same compound, the “Plant response rating, Lambsquarters” value [1, 19] was 100, the “Plant response rating, Lambsquarters” value [1, 20] was 85 and the “Plant response rating, Barley, Spring” value [2, 14] was 0. For the same compound, the “Plant response rating, Barley, Spring” value [2, 15] was 5, the “Plant response rating, Barley, Spring” value [2, 16] was 10 and the “Plant response rating (scale of 0 to 100), Barley, Spring” value ([2]; Preemergence, 31 g ai/ha) was 0. For the same compound, the “Plant response rating, Barley, Spring” value [2, 17] was 0, the “Plant response rating, Barley, Spring” value [2, 18] was 0 and the “Barley, Spring plant response rating” value [2, 19] was 5. The “Plant response rating, Barley, Spring” value [2, 20] was 0, the “Windgrass plant response rating” value [3, 14] was 70 and the “Plant response rating, Windgrass” value [3, 15] was 90. The “Plant response rating, Windgrass” value [3, 16] was 98, the “Plant response rating (scale of 0 to 100), Windgrass” value ([3]; Preemergence, 31 g ai/ha) was 70 and the “Plant response rating, Windgrass” value [3, 17] was 85. The “Plant response rating, Windgrass” value [3, 18] was 85, the “Plant response rating, Windgrass” value [3, 19] was 100 and the “Plant response rating, Windgrass” value [3, 20] was 75. The “Wheat, Spring plant response rating” value [4, 14] was 0, the “Plant response rating, Wheat, Spring” value [4, 15] was 15 and the “Plant response rating, Wheat, Spring” value [4, 16] was 20. For the same compound, the “Plant response rating (scale of 0 to 100), Wheat, Spring” value ([4]; Preemergence, 31 g ai/ha) was 0, the “Plant response rating, Wheat, Spring” value [4, 17] was 0 and the “Plant response rating, Wheat, Spring” value [4, 18] was 0. For the same compound, the “Plant response rating, Wheat, Spring” value [4, 19] was 20, the “Plant response rating, Wheat, Spring” value [4, 20] was 10 and the “Mustard, Wild plant response rating” value [5, 14] was 25. The “Plant response rating, Mustard, Wild” value [5, 15] was 70, the “Plant response rating, Mustard, Wild” value [5, 16] was 80 and the “Plant response rating (scale of 0 to 100), Mustard, Wild” value ([5]; Preemergence, 31 g ai/ha) was 15. The “Plant response rating, Mustard, Wild” value [5, 17] was 15, the “Plant response rating, Mustard, Wild” value [5, 18] was 20 and the “Plant response rating, Mustard, Wild” value [5, 19] was 25. For the same compound, the “Plant response rating, Mustard, Wild” value [5, 20] was 70, the “Chamomile plant response rating” value [6, 14] was 75 and the “Plant response rating, Chamomile” value [6, 15] was 100. The “Plant response rating, Chamomile” value [6, 16] was 100, the “Plant response rating (scale of 0 to 100), Chamomile” value ([6]; Preemergence, 31 g ai/ha) was 95 and the “Plant response rating, Chamomile” value [6, 17] was 100. The “Plant response rating, Chamomile” value [6, 18] was 100, the “Plant response rating, Chamomile” value [6, 19] was 100 and the “Plant response rating, Chamomile” value [6, 20] was 70. For the same compound, the “Bromegrass, Downy plant response rating” value [7, 14] was 0, the “Plant response rating, Bromegrass, Downy” value [7, 15] was 40 and the “Plant response rating, Bromegrass, Downy” value [7, 16] was 70. The “Plant response rating (scale of 0 to 100), Bromegrass, Downy” value ([7]; Preemergence, 31 g ai/ha) was 45, the “Plant response rating, Bromegrass, Downy” value [7, 17] was 55 and the “Plant response rating, Bromegrass, Downy” value [7, 18] was 70. The “Plant response rating, Bromegrass, Downy” value [7, 19] was 90, the “Plant response rating, Bromegrass, Downy” value [7, 20] was 20 and the “Oat, Wild plant response rating” value [8, 14] was 75. The “Plant response rating, Oat, Wild” value [8, 15] was 85, the “Plant response rating, Oat, Wild” value [8, 16] was 95 and the “Plant response rating (scale of 0 to 100), Oat, Wild” value ([8]; Preemergence, 31 g ai/ha) was 90. The “Plant response rating, Oat, Wild” value [8, 17] was 90, the “Plant response rating, Oat, Wild” value [8, 18] was 95 and the “Plant response rating, Oat, Wild” value [8, 19] was 95. For the same compound, the “Plant response rating, Oat, Wild” value [8, 20] was 85, the “Field Violet plant response rating” value [9, 14] was 70 and the “Plant response rating, Field Violet” value [9, 15] was 90. The “Plant response rating, Field Violet” value [9, 16] was 90, the “Plant response rating (scale of 0 to 100), Field Violet” value ([9]; Preemergence, 31 g ai/ha) was 85 and the “Plant response rating, Field Violet” value [9, 17] was 95. For the same compound, the “Plant response rating, Field Violet” value [9, 18] was 100, the “Plant response rating, Field Violet” value [9, 19] was 100 and the “Plant response rating, Field Violet” value [9, 20] was 80. The “Speedwell plant response rating” value [10, 14] was 10, the “Plant response rating, Speedwell” value [10, 15] was 45 and the “Plant response rating, Speedwell” value [10, 16] was 45. For the same compound, the “Plant response rating (scale of 0 to 100), Speedwell” value ([10]; Preemergence, 31 g ai/ha) was 70, the “Plant response rating, Speedwell” value [10, 17] was 75 and the “Plant response rating, Speedwell” value [10, 18] was 70. For the same compound, the “Plant response rating, Speedwell” value [10, 19] was 100, the “Plant response rating, Speedwell” value [10, 20] was 50 and the “Deadnettle plant response rating” value [11, 14] was 5. The “Plant response rating, Deadnettle” value [11, 15] was 35, the “Plant response rating, Deadnettle” value [11, 16] was 55 and the “Plant response rating (scale of 0 to 100), Deadnettle” value ([11]; Preemergence, 31 g ai/ha) was 0. The “Plant response rating, Deadnettle” value [11, 17] was 0, the “Plant response rating, Deadnettle” value [11, 18] was 25 and the “Plant response rating, Deadnettle” value [11, 19] was 15. For the same compound, the “Plant response rating, Deadnettle” value [11, 20] was 25, the “Radish, Wild plant response rating” value [12, 14] was 5 and the “Plant response rating, Radish, Wild” value [12, 15] was 20. The “Plant response rating, Radish, Wild” value [12, 16] was 65, the “Plant response rating (scale of 0 to 100), Radish, Wild” value ([12]; Preemergence, 31 g ai/ha) was 0 and the “Plant response rating, Radish, Wild” value [12, 18] was 15. For the same compound, the “Plant response rating, Radish, Wild” value [12, 19] was 60, the “Plant response rating, Radish, Wild” value [12, 20] was 10 and the “Oilseed Rape plant response rating” value [13, 14] was 10. For the same compound, the “Plant response rating, Oilseed Rape” value [13, 15] was 60, the “Plant response rating, Oilseed Rape” value [13, 16] was 70 and the “Plant response rating (scale of 0 to 100), Oilseed Rape” value ([13]; Preemergence, 31 g ai/ha) was 0. For the same compound, the “Plant response rating, Oilseed Rape” value [13, 17] was 0, the “Plant response rating, Oilseed Rape” value [13, 18] was 0 and the “Plant response rating, Oilseed Rape” value [13, 19] was 0. For the same compound, the “Plant response rating, Oilseed Rape” value [13, 20] was 50.

Source: US10597388B2, “Pyridazinone herbicides” (FMC CORPORATION, priority 2014, dated 2020)
